Assay type in all cases: cell-based, human
In assay [1] the test system is K562. The assay can be described thus: Beta-glucosidase inhibition assay (DMDP) in K562 cell line. The following applies: for Cell growth relative to untreated cells: higher concentration (0.4 μM). An excerpt: Similar results showing preferential activation of glucose conjugates relative to galactose or lactose conjugates were obtained in other cancer cell lines. The glucose-conjugated compound is apparently cleaved by native glucosidase inside of the cancer cells resulting in release of a biologically active anti-cytostatic compound. The cleavage of glucose conjugates by an enzymatic pathway to release an active drug is shown by a beta-glucosidase inhibition assay. FIG. 5 is a graph showing the results of a beta-glucosidase inhibition assay studied in K562 cell line. Two different concentrations of prodrug were tested in this experiment. For compound 24, 17-demethoxy-17-[(2-β-glucopyranosylethyl)amino]geldanamycin], the higher concentration is 0.4 μM and the lower concentration is 0.2 μM. […] Percentages of cell growth were calculated compared to control cells in the absence of beta-glucosidase inhibitor and prodrug solution. Each bar represents the average of three experiments. […] While the higher concentration of compound 24 limits cells growth to about 20% of untreated cells, when the beta-glucosidase inhibitor DMDP is added, the high concentration of compound 24 only reduces growth to about 60% that of untreated cells.
Beta-glucosidase Inhibition assay. To verify if the cleavage of sugar moieties from compound 24 is crucial for the anticancer activity, we performed the β-glucosidase inhibition study in K562 cell line. The K562 cells were treated with β-glucosidase inhibitor 2, 5-dihydroxymethyl-3,4-dihydroxypyrrolidine (DMDP) solution (100 μM) for 10 minutes before adding carbohydrate-geldanamycin conjugates. The concentrations of glucose-GA were 0.4 μM and 0.2 μM, respectively. […] From the structures of compounds 24 and 25, the only difference between these two compounds is the sugar moiety, which is glucose in compound 24 and galactose in compound 25.
Beta-Glucosidase inhibition assay for compound 2425. […] The exponentially growing cancer cells were incubated in three different conditions (cells with different concentration of test compounds and DMDP, cells with different concentration of test compounds only, and cell with DMDP only) for 72 hours at 37° C. (5% CO2, 100% humidity). The control cells were exposed to fresh medium only. Then, the anticancer activities of compound 24, 25 were measured with MTS assay as described above. The percentages of cell growth for tested compounds vs. control cells were calculated by the absorbance at 490 nm.

The subject of the next assay is HT29. The assay can be described thus: Anticancer activity (MTS assay) in HT29 cells. As to the method:
(§1) The anticancer activities of six prodrug conjugates synthesized by the method were tested for anticytostatic activity by using the MTS assay to show suppression of cell growth. Four different human cell lines, including colorectal carcinoma cells (SW620, HT 29), breast cancer cells (MCF7), and leukemia cells (K562), were tested using the MTS assay. Each compound was tested at concentration 1-25,000 nM. GA also was tested for comparison. The inhibition of cell growth was calculated compared to control cells without drug treatment. For purposes of this description of in vitro cell culture testing, drug concentrations are given for the molar concentrations of the chemotherapeutic agents present in the media at the initiation of the test. Skilled artisans are aware of the various conversion factors necessary to convert media concentrations to tissue concentration targets and the dose necessary to achieve such a dose.
(§2) Cell Culture. Cell lines SW620, HT29, MCF7, and K562 were cultured in RPMI 1640 (Invitrogen, Carlsbad, Calif., USA) supplemented with 10% fetal bovine serum (FBS), 1% non-essential amino acid and Penicillin (100 u/mL) Streptomycin (100 ug/mL) in a humidified atmosphere of 5% CO2 and 95% air at 37° C. The culture mediums were changed every 2-3 days.
(§3) Anticancer activity of compound (24-29) (MTS assay). Cells (2,000-10,000) were seeded in 96 well plates in RPMI-1640 and incubated for 24 hours. The exponentially growing cancer cells were incubated with various concentrations of compounds for 72 hours at 37° C. (5% CO2, 95% humidity).
On the technique in general: Tetrazolium dyes change colour on reduction, which living cells bring about.

The test system of the next assay is SW620. The assay is described as follows: Anticancer activity (MTS assay) in SW620 cells. As to the method:
as §1, §2, §3

A further assay has as its system MCF7. The assay is described as follows: Anticancer activity (MTS assay) in MCF7 cells. Conditions: 72 hours. The method, then:
as §1, §2, §3

The subject of assay [2] is K562. The assay can be described thus: Anticancer activity (MTS assay) in K562 cells. The following applies: 72 hours. The method, then:
as §1, §2, §3

Another assay deals with various cancer cells. The assay can be described thus: Anticancer activity (MTS assay), pooled statements on various cancer cells. Conditions: no added enzyme. The method, then: as §1, §3
In another assay the test system is SW620, HT29 and K562. The assay is described as follows: Beta-galactosidase cleavage assay. Conditions: 2 units beta-galactosidase. As to the method: Thus, galactose-GA and lactose-GA conjugates were exposed to beta-galactosidase and observed for enhancement of anticancer activities. […] For compounds 25-29, 1 μM concentration of prodrug compounds were used. GA (0.01 μM), compound 24 (0.1 μM) and beta-galactosidase (2 units) was used in the cell culture. Each bar in the graphs shown is the average of three experiments. Relative percentage of cell growth was calculated compared to control cells in the absence of beta-galactosidase and drug solution. Cell lines SW620, HT29 and K562 were exposed to 2 units of beta-galactosidase and then treated individually with 1 μM of compounds 25-29. At this concentration, galactose-geldanamycin conjugates alone were relatively devoid of anticancer activity.
Beta-galactosidase cleavage assay. Cells (2,000-10,000) were seeded in 96 well plates in RPMI-1640 and incubated for 24 hours. The exponentially growing cancer cells were incubated with 2 units of beta-galactosidase for 10 minutes. The same concentration solutions of various compounds (25-29) were added to each well. The control cells were exposed to fresh medium only or to beta-galactosidase alone. After incubated for 72 hours at 37° C. (5% CO2, 100% humidity), the cell growth was measured with MTS assay as described above. The percentages of cell growth of tested compounds vs. control were calculated by measuring the absorbance at 490 nm.

Experimental findings from patent US20080312162A1, “Methods and Compositions for Enzyme-Specific Activation of Carbohydrate-Conjugated Prodrugs” (THE OHIO STATE UNIVERSITY, priority 2004, published 2008) are described below.

SMILES strings stand for the structures. Where “and” joins values, the source holds several entries; their conditions need not be identical. Equal values may be shown once. Entries after “also recorded” stand apart in the source; their conditions may differ.

Turning to `OCC1NC(CO)C(O)C1O` (centres unmarked) [DMDP, 2,5-dihydroxymethyl-3,4-dihydroxypyrrolidine, reference compound], in the assay on K562 [1] (DMDP alone), the “Effect on cell growth” value is listed as “did not have any effect on cell growth”.
Broadly, the IC50 is the point on the concentration scale where inhibition reaches its midpoint. A high value points to a need for much substance. As for `COC1=C2C[C@@H](C)C[C@H](OC)[C@H](O)[C@@H](C)/C=C(\C)[C@H](OC(N)=O)[C@@H](OC)/C=C\C=C(/C)C(=O)NC(=CC1=O)C2=O` [GA, Geldanamycin, reference compound], the IC50 with HT29 (Homo sapiens, HT-29, 72 hours) is 24.5 nM; in the assay with SW620 (Homo sapiens, SW-620, 72 hours), 6.2 nM; in the assay with MCF7 (Homo sapiens), 6.5 nM; in the assay on K562 [2] (Homo sapiens), 22.1 nM.
Take `COC1C=CC=C(C)C(=O)NC2=CC(=O)C(NCCOC3OC(CO)C(O)C(O)C3O)=C(CC(C)CC(OC)C(O)C(C)C=C(C)C1OC(N)=O)C2=O` (stereo not drawn) [compound 24, 17-demethoxy-17-[(2-β-glucopyranosylethyl)amino]geldanamycin]: the “Anticytostatic activity against tumor cells” value in the assay on various cancer cells is listed as “showed anticytostatic activity”. In the assay on various cancer cells (various cancer cells), the “Anticancer activity IC50 in various cancer cells” value is given as “within the nanomolar range”. Moreover, the half-maximal inhibitory concentration (IC50) in the assay on various cancer cells (various cancer cells) was 70.2 to 381 nM; in the assay on HT29 (72 hours), 105 nM; with SW620 (72 hours) it was 70 nM and 70.2 nM; with MCF7, 754 nM; with K562 [2], 381 nM. Besides, the “Effect of beta-galactosidase treatment on activity” value in the assay with SW620, HT29 and K562 was “did not affect biological activity; also recorded: relatively unaffected”; with SW620, HT29 and K562 (listed as glucose-GA), “not affected”. In addition, the “Decrease of activity after treatment with DMDP” value in the assay on K562 [1] (DMDP 100 μM) is 3 fold. The “Effect of beta-glucosidase inhibitor DMDP on activity” value in the assay with K562 [1] (DMDP 100 μM, listed as glucose-GA) is reported as “completely abolished”. The “Cell growth relative to untreated cells” value is listed as “about 60%” with K562 [1] (with beta-glucosidase inhibitor DMDP (100 μM)) and “about 20%” in the assay on K562 [1] (without DMDP).
Regarding `COC1C=CC=C(C)C(=O)NC2=CC(=O)C(NCCOC3OC(CO)C(O)C(O)C3O)=C(CC(C)CC(OC)C(O)C(C)C=C(C)C1OC(N)=O)C2=O` (stereo not drawn) [compound 25, 17-demethoxy-17-[(2-β-galactopyranosylethyl)amino]geldanamycin], the IC50 in the assay with HT29 (72 hours) is greater than 14000 nM; with MCF7, greater than 25000 nM; in the assay with K562 [2], greater than 23000 nM. Moreover, the “Effect of beta-glucosidase inhibitor DMDP on activity” value in the assay with K562 [1] (DMDP 100 μM) is recorded as “did not affect; also recorded: relatively unaffected”.
For the compound `COC1C=CC=C(C)C(=O)NC2=CC(=O)C(NCCCOC3OC(CO)C(O)C(O)C3O)=C(CC(C)CC(OC)C(O)C(C)C=C(C)C1OC(N)=O)C2=O` (centres unmarked) [compound 26], the 50% inhibitory concentration (IC50) is greater than 6000 nM in the assay on HT29 (72 hours), greater than 14000 nM in the assay on SW620 (72 hours), greater than 12000 nM in the assay with MCF7 and greater than 14000 nM in the assay with K562 [2].
As to `COC1C=CC=C(C)C(=O)NC2=CC(=O)C(NCCCCCOC3OC(CO)C(O)C(O)C3O)=C(CC(C)CC(OC)C(O)C(C)C=C(C)C1OC(N)=O)C2=O` (centres unmarked) [compound 27], the IC50 is greater than 13000 nM with HT29 (72 hours), greater than 13000 nM in the assay on SW620 (72 hours), greater than 17000 nM in the assay with MCF7 and greater than 19000 nM in the assay with K562 [2].
As to `COC1C=CC=C(C)C(=O)NC2=CC(=O)C(NCCOCCOC3OC(CO)C(O)C(O)C3O)=C(CC(C)CC(OC)C(O)C(C)C=C(C)C1OC(N)=O)C2=O` (stereo not drawn) [compound 28, 17-demethoxy-17-{[2-(2-β-galactopyranosylethyl)ethyl]amino}geldanamycin], the IC50 is greater than 13000 nM with HT29 (72 hours), greater than 11000 nM with SW620 (72 hours), greater than 22000 nM in the assay with MCF7 and greater than 15000 nM in the assay on K562 [2].
For `COC1C=CC=C(C)C(=O)NC2=CC(=O)C(NCCOC3OC(CO)C(OC4OC(CO)C(O)C(O)C4O)C(O)C3O)=C(CC(C)CC(OC)C(O)C(C)C=C(C)C1OC(N)=O)C2=O` (stereo not drawn) [compound 29, 17-demethoxy-17-[(2-β-lactopyranosylethyl)amino]geldanamycin], the half-maximal inhibitory concentration (IC50) in the assay on HT29 (72 hours) was greater than 25000 nM; with SW620 (72 hours), greater than 20000 nM; in the assay on MCF7 it was greater than 22000 nM; with K562 [2], greater than 25000 nM.
